In patent US12077503B2, “Substituted cyclic amides and their use as herbicides” (FMC CORPORATION, priority 2015, dated 2024):

Experiments:
Test in all cases: Test G Post-Emergence Protocol
Type in all cases: in vivo
[1] = test system: corn (Zea mays); conditions: Zea mays, post-emergence, 312 h; for plant injury at 15.625 g/ha: 15.625 g ai/ha, evaluated after 13 days (100=total damage to plant; 0=no damage to plant), read-out: Corn damage rating; for plant injury at 62.5 g/ha: 62.5 g ai/ha, read-out: Corn damage rating (100=total damage to plant; 0=no damage to plant); for plant injury at 62.5 g/ha / plant injury at 250 g/ha: evaluated after 13 days; for plant injury at 250 g/ha: 250 g ai/ha, read-out: damage to plant, Corn (100=total damage to plant; 0=no damage to plant)
Method: (§1) Seeds of corn (Zea mays), giant foxtail (Setaria faberi), barnyardgrass (Echinochloa crus-galli), ivy-leaved morning glory (Ipomoea hederacea), redroot pigweed (Amaranthus retroflexus) and velvetleaf (Abutilon theophrasti) were sown in standard soil in pots. After cultivation for 8 days under controlled conditions in a glasshouse (at 24/16° C., day/night; 14 hours light; 65% humidity), the plants were sprayed with an aqueous spray solution derived from the formulation of the technical active ingredient in acetone/water (50:50) solution containing 0.5% Tween 20 (polyoxyethylene sorbitan monolaurate, CAS RN 9005-64-5) to give a final dose of 15.625, 62.5 or 250 g/ha of test compound.
(§2) The test plants were then grown on under controlled conditions in a glasshouse (at 24/16° C., day/night; 14 hours light; 65% humidity) and watered twice daily. After 13 days the test was evaluated (100=total damage to plant; 0=no damage to plant). A dash (-) means no test result.

[2] = test system: redroot pigweed (Amaranthus retroflexus); conditions: Amaranthus retroflexus, post-emergence, 312 h; for pest or weed control at 15.625 g/ha: 15.625 g ai/ha, evaluated after 13 days (100=total damage to plant; 0=no damage to plant), read-out: Pigweed, Redroot damage rating; for pest or weed control at 62.5 g/ha: 62.5 g ai/ha, read-out: Pigweed, Redroot damage rating (100=total damage to plant; 0=no damage to plant); for pest or weed control at 62.5 g/ha / pest or weed control at 250 g/ha: evaluated after 13 days; for pest or weed control at 250 g/ha: 250 g ai/ha, read-out: damage to plant, Pigweed, Redroot (100=total damage to plant; 0=no damage to plant)
Method: as §1, §2

[3] = test system: barnyardgrass (Echinochloa crus-galli); conditions: Echinochloa crus-galli, post-emergence, 312 h; for pest or weed control at 15.625 g/ha: 15.625 g ai/ha, evaluated after 13 days (100=total damage to plant; 0=no damage to plant), read-out: Barnyardgrass damage rating; for pest or weed control at 62.5 g/ha: 62.5 g ai/ha, read-out: Barnyardgrass damage rating (100=total damage to plant; 0=no damage to plant); for pest or weed control at 62.5 g/ha / pest or weed control at 250 g/ha: evaluated after 13 days; for pest or weed control at 250 g/ha: 250 g ai/ha, read-out: damage to plant, Barnyardgrass (100=total damage to plant; 0=no damage to plant)
Method: as §1, §2

[4] = test system: giant foxtail (Setaria faberi); conditions: Setaria faberi, post-emergence, 312 h; for pest or weed control at 15.625 g/ha: 15.625 g ai/ha, evaluated after 13 days (100=total damage to plant; 0=no damage to plant), read-out: Foxtail, Giant damage rating; for pest or weed control at 62.5 g/ha: 62.5 g ai/ha, read-out: Foxtail, Giant damage rating (100=total damage to plant; 0=no damage to plant); for pest or weed control at 62.5 g/ha / pest or weed control at 250 g/ha: evaluated after 13 days; for pest or weed control at 250 g/ha: 250 g ai/ha, read-out: damage to plant, Foxtail, Giant (100=total damage to plant; 0=no damage to plant)
Method: as §1, §2

[5] = test system: velvetleaf (Abutilon theophrasti); conditions: Abutilon theophrasti, post-emergence, 312 h; for pest or weed control at 15.625 g/ha: 15.625 g ai/ha, evaluated after 13 days (100=total damage to plant; 0=no damage to plant), read-out: Velvetleaf damage rating; for pest or weed control at 62.5 g/ha: 62.5 g ai/ha, read-out: Velvetleaf damage rating (100=total damage to plant; 0=no damage to plant); for pest or weed control at 62.5 g/ha / pest or weed control at 250 g/ha: evaluated after 13 days; for pest or weed control at 250 g/ha: 250 g ai/ha, read-out: damage to plant, Velvetleaf (100=total damage to plant; 0=no damage to plant)
Method: as §1, §2

[6] = test system: ivy-leaved morning glory (Ipomoea hederacea); conditions: Ipomoea, post-emergence, 312 h; for pest or weed control at 15.625 g/ha: 15.625 g ai/ha, evaluated after 13 days (100=total damage to plant; 0=no damage to plant), read-out: Morningglory, Ivy-leaved damage rating; for pest or weed control at 62.5 g/ha: 62.5 g ai/ha, read-out: Morningglory, Ivy-leaved damage rating (100=total damage to plant; 0=no damage to plant); for pest or weed control at 62.5 g/ha / pest or weed control at 250 g/ha: evaluated after 13 days; for pest or weed control at 250 g/ha: 250 g ai/ha, read-out: damage to plant, Morningglory, Ivy-leaved (100=total damage to plant; 0=no damage to plant)
Method: as §1, §2

SMILES | plant injury at 15.625 g/ha [1] [%] | plant injury at 62.5 g/ha [1] [%] | plant injury at 250 g/ha [1] [%] | pest or weed control at 15.625 g/ha [2] [%] | pest or weed control at 62.5 g/ha [2] [%] | pest or weed control at 250 g/ha [2] [%] | pest or weed control at 15.625 g/ha [3] [%] | pest or weed control at 62.5 g/ha [3] [%] | pest or weed control at 250 g/ha [3] [%] | pest or weed control at 15.625 g/ha [4] [%] | pest or weed control at 62.5 g/ha [4] [%] | pest or weed control at 250 g/ha [4] [%] | pest or weed control at 15.625 g/ha [5] [%] | pest or weed control at 62.5 g/ha [5] [%] | pest or weed control at 250 g/ha [5] [%] | pest or weed control at 15.625 g/ha [6] [%] | pest or weed control at 62.5 g/ha [6] [%] | pest or weed control at 250 g/ha [6] [%]
CN1C[C@@H](c2ccc(C(F)(F)F)cc2)[C@H](C(=O)Nc2ccccc2)C1=O (racemic) [Compound 1404] | 20 | 20 | 40 | 20 | 40 | 30 | 10 | 20 | 40 | 0 | 50 | 70 | 10 | 20 | 20 | 0 | 10 | 30
CN1C[C@H](c2ccc3c(c2)CCO3)[C@@H](C(=O)Nc2cccc(F)c2F)C1=O (racemic) [Compound 1499] | 10 | 0 | 80 | 0 | 0 | 0 | 50 | 60 | 60 | 60 | 60 | 70 | 0 | 0 | 20 | 20 | 0 | 40
CN1C[C@H](c2ccc3occc3c2)[C@@H](C(=O)Nc2cccc(F)c2F)C1=O (racemic) [Compound 1500] | 10 | 10 | 60 | 0 | 0 | 0 | 10 | 60 | 60 | 40 | 60 | 60 | 0 | 0 | 20 | 0 | 0 | 10
Cc1c(NC(=O)[C@@H]2C(=O)N(C)C[C@H]2c2ccc(C(F)(F)F)cc2)ccc(F)c1F (racemic) [Compound 1502] | 0 | 30 | 60 | 20 | 30 | 80 | 20 | 60 | 70 | 60 | 80 | 80 | 0 | 10 | 40 | 0 | 0 | 20
Cc1ccncc1NC(=O)[C@@H]1C(=O)N(C)C[C@H]1c1ccc(C(F)(F)F)cc1 (racemic) [Compound 1505] | 0 | 10 | 10 | 0 | 0 | 0 | 0 | 0 | 20 | 0 | 0 | 30 | 0 | 0 | 0 | 0 | 0 | 10
CN1C[C@@H](c2ccc(C(F)(F)F)cc2)[C@H](C(=O)Nc2cc(C(F)(F)F)nn2C)C1=O (racemic) [Compound 1510] | 0 | 0 | 10 | 0 | 0 | 20 | 0 | 0 | 0 | 0 | 0 | 0 | 0 | 0 | 0 | 0 | 0 | 0
CN1C[C@@H](c2ccc(C(F)(F)F)cc2)[C@H](C(=O)Nc2ccno2)C1=O (racemic) [Compound 1513] | 0 | 0 | 0 | 0 | 0 | 0 | 0 | 0 | 0 | 0 | 0 | 0 | 0 | 0 | 0 | 0 | 0 | 0
CN1C[C@@H](c2ccc(C(F)(F)F)cc2)[C@H](C(=O)Nc2ncc(Br)cn2)C1=O (racemic) [Compound 1514] | 0 | 10 | 10 | 0 | 0 | 0 | 0 | 0 | 0 | 0 | 0 | 0 | 0 | 0 | 0 | 0 | 0 | 0
Cc1cscc1NC(=O)[C@@H]1C(=O)N(C)C[C@H]1c1ccc(C(F)(F)F)cc1 (racemic) [Compound 1526] | 0 | 10 | 10 | 0 | 0 | 0 | 0 | 0 | 60 | 0 | 20 | 60 | 0 | 0 | 10 | 0 | 10 | 20
